The text below walks through data of patent US9073858B2, “Methods of targeted drug development” (priority 2010, dated 2015).

This assay relates to caspase 3,7 activity in A431 cells. In words: cells. The text has this:
As described below, the capsase 3,7 assay uses the Promega Caspase-Glo 3/7 assay kit (cat no. G8092).
The Caspase-Glo® 3/7 Assay is a luminescent assay that measures caspase-3 and −7 activities in purified enzyme preparations or cultures of adherent or suspension cells. The assay provides a proluminescent caspase-3/7 substrate, which contains the tetrapeptide sequence, DEVD. This substrate is cleaved to release aminoluciferin, a substrate of luciferase used in the production of light. The Caspase-Glo® 3/7 Reagent has been optimized for caspase activity, luciferase activity and cell lysis. The addition of the single Caspase-Glo® 3/7 Reagent in an “add-mix-measure” format results in cell lysis, followed by caspase cleavage of the substrate and generation of a “glow-type” luminescent signal. The Caspase-Glo® 3/7 Assay is designed for use with multiwell plate formats, making it ideal for automated high-throughput screening of caspase activity or apoptosis.
Staurosporine was used as a positive control.
For the capsase 3,7 assay, cells were incubated for 5.5 hrs at 37° C., 5% CO2. The plate was removed from the incubator and equilibrated to room temperature. After 30 min, 25 μl Caspase 3/7 detection reagent (Promega Caspase-Glo 3/7 assay kit, cat no. G8092) was added to each well. The plate was covered with tin foil and shaken on a plate shaker at speed 4 for 3 min. The plate was then incubated for an additional 60 min at room temperature. Luminescence was detected using the PolarStar plate reader.
All statistical analyses were done using GraphPad Prism.
The assay was stopped after 6 hrs and the presence of caspase was measured using the Promega Caspase-Glo® 3/7 Assay.

The mark [1] stands for this setting: Homo sapiens, A-431, read-out: Total Apoptosis (increase in caspase 3,7 activity as percentage of the maximal response).

Consider `Cc1c(Cl)cnc(NC(c2cccc(Cl)c2Cl)c2ccc3cccnc3c2O)c1F` (stereo not shown) [AD4-13192], for which, under setting [1], the Emax at 8 µM was 29% and the Emax at 16 µM was 32%. In addition, the “effect on Tarceva to increase caspase 3,7 activity” value (Tarceva plus compound, A431 cells, 6 hrs) was “synergistic (greater-than-additive) effect”. The “Ability to Synergize with Tarceva” value (caspase 3,7 activity, A431 cells) is “+++ (0.3-0.7 Synergism)”.
